From patent US6656499B1, “Composition for transdermal and dermal administration of interferon-α” (PharmaDerm Laboratories, Ltd., priority 1999, dated 2003)
Blank lines part the entries; values can stand above or below the compound they belong to.

Tests used:
[1] = In vitro diffusion of IFN-α into human skin, flow-through diffusion cells, antiviral bioassay of skin homogenate; conditions: Biphasic lipid vesicles + acylated amino acid + IFN-α, 24 hours, n = 4
[2] = guinea pigs, lipid vesicle patch 24 hours, FIG. 1A, vs untreated control animals
[3] = test system: Ki67 nuclear protein in proliferating cells; experiment: Anti-proliferation assay on skin sections of human volunteers (Ki67 staining); type: in vivo; conditions: for Average % decrease of proliferative cells stained by anti-Ki67 antibody: 48 hours
Description: Skin sections were also stained for Ki67 nuclear protein in proliferating cells using anti-M1B1 monoclonal antibodies (Rose et al., J. Clin. Pathol., 47:1010 (1994)) and visualized.
The number of stained cells were counted before and after treatment sections. The decreased number of stained cells were expressed as a percentage.

[4] = Antiviral activity in serum of human subjects after transdermal patch; conditions: individual subjects in each treatment group (5, 15, 40 MU), before vs after 48 hours patch, FIGS. 4A-4C
2-5A synthetase = 2-5A synthetase enzyme activity in PBMC of treated human subjects; type: in vivo; conditions: all three treatment groups compared to their untreated controls (p<0.05)
Method: The experimental protocol is set forth in Example 5C.
Induction of 2-5A synthetase enzyme activity in peripheral blood mononuclear cells (PBMC) was used as an indication for the systemic delivery of IFN-α from biphasic delivery systems.
2-5A synthetase was determined by a ^125I-2-5A radioimmuno assay kit (Eiken Chemical Corp., Tokyo, Japan) using rabbit anti-human 2-5A antibody and goat antirabbit IgG as secondary antibody. Briefly, 2-5A synthetase was extracted from the samples by poly (I) poly (C) agarose for 10 min. After the addition of ATP solution (24 μg/mL) and incubation, 100 μL ^125I-2-5A was added, followed by the primary and secondary antibody. Radioactivity bound was determined by gamma counting. 2-5A synthetase is measured as pmol 2-5A produced/100 mL/h and subsequently expressed as nmole enzyme/mg protein 1 h in skin homogenate. All samples were run in duplicates.

[5] = human, in vivo
Method: The human subjects were divided randomly into three groups for treatment with a transdermal patch containing a lipid vesicle compositions at one of the three IFN-α concentrations. […] After treatment with the placebo, skin biopsies and blood samples were collected from each subject. In Phase II of the study, each subject was treated with a transdermal patch containing IFN-α entrapped in biphasic lipid vesicles at one of the three concentrations: 5 MU/g formulation/patch, 15 MU/g formulation/patch or 40 MU/g formulation/patch. After treatment for 48 hours, skin biopsies and blood samples were taken and analyzed. The biopsy samples were analyzed by immunohistochemistry, antiviral assay, ELISA and 2-5A synthetase assays. The blood samples were used to prepare serum for the antiviral and ELISA assays and to extract peripheral blood mononuclear cells for the 2-5A synthetase assay.
To determine IFN-α concentration in skin homogenates, Cytoscreen™ ELISA kit (Medicorp, Montreal, PQ) was used. The sensitivity of the assay is <25 pg/mL and the range of concentration is 0-500 pg/mL. The assay is specific for human IFN-α with no cross-reactivity with human IFNβ, IFNγ or IFNω. The results are expressed as pg IFN-α/mg skin.
Seventeen human volunteers were randomized into three treatment groups. […]

[6] = Immunohistochemistry of skin biopsies with anti-IFN-α antibodies; type: in vivo, human; conditions: 40 MU group, treated skin site vs untreated skin
Description: The skin biopsy taken from the site of application of the biphasic lipid vesicle-containing transdermal patch of each test subject was processed for immunohistochemistry. A skin sample from a representative individual in the treatment group receiving 40 MU IFN-α was compared visually to a skin section of control, untreated skin after staining both samples with anti-IFN-α antibodies. […] This staining pattern was characteristic in all volunteers in this treatment group.
Sections 5 μm in thickness were cut and after antigen retrieval with 10 mM Na-citrate the sections were incubated with mouse anti-human interferon alpha antibody (1:2,000-1:5,000), which were in turn treated with a biotinylated rabbit anti-mouse secondary antibody and stained by the Avidin Biotin Complex (ABC) method.

Average Amount of IFN-α in skin [1]: 250 ± 112 U/mg protein
Compound: CCCCCCCCCCCC(=O)NCCCC[C@H](N)C(=O)O [MLL, Lauroyl lysine]

Average Amount of IFN-α in skin [1]: 290 ± 172 U/mg protein
Compound: CCCCCCCC(=O)N[C@H](C(=O)OC)[C@@H](C)O [PDM1, N-capryloyl-L-threonine methyl ester]

Compound: CCCCCCCCCCCCCCCCCCCC(=O)N[C@@H](CO)C(=O)O [PDM3, N-eicosanoyl-L-serine]
Average Amount of IFN-α in skin [1]: 2022 ± 1046 U/mg protein
serum antiviral activity / transdermal skin penetration (in words) [2]: significant increase

Average Amount of IFN-α in skin [1]: 1707 ± 538 U/mg protein
Compound: CCCCCCCCCCCCCCCCCCCC(=O)N[C@H](C(=O)O)[C@@H](C)O [PDM4, N-eicosanoyl threonine]

Average Amount of IFN-α in skin [1]: 540 ± 239 U/mg protein
Compound: CCCCCCCCCCCCCCCC(=O)N[C@@H](CCCCNC(=O)CCCCCCCCCCC)C(=O)OC [PDM17, Nα-palmitoyl-Nε Lauroyl-L- lysine methyl ester]

Average Amount of IFN-α in skin [1]: 84 ± 52 U/mg protein
Compound: CCCCCCCCCCCC(=O)NCCCC[C@H](NC(=O)CCCCCCCCCCC)C(=O)OC [PDM18, Nα lauroyl-Nε Lauroyl-L- lysine methyl ester]

Compound: IFN-α
Average % decrease of proliferative cells stained by anti-Ki67 antibody ([3]; Dose 5 MU, compared to placebo treated skin): 14%
anti-proliferative ratio ([3]; Dose 5 MU, proliferating cells in placebo treated skin / after treatment): 1.21
Average % decrease of proliferative cells stained by anti-Ki67 antibody ([3]; Dose 15 MU, compared to placebo treated skin): 10%
anti-proliferative ratio ([3]; Dose 15 MU, proliferating cells in placebo treated skin / after treatment): 1.32
Average % decrease of proliferative cells stained by anti-Ki67 antibody ([3]; Dose 40 MU, compared to untreated skin): 38%
anti-proliferative ratio ([3]; Dose 40 MU, proliferating cells in untreated skin / after treatment): 2
Ki67 staining of skin sections, anti-proliferative effect (in words) ([3]; skin treated with IFN-α): decreased staining
serum antiviral activity (in words) [4]: significant increase
induction in 2-5A synthetase enzyme activity (in words) (2-5A synthetase): significant induction
further increase in IFN-α levels in skin homogenates (in words) [5]: No significant further increase
increase in IFN-α levels in post-treatment skin homogenates (ELISA) [5]: 3 fold
IFN-α specific immunostaining of skin section (in words) [6]: IFN-α specific immunostaining throughout the stratum corneum, epidermis and dermis
